Assay results: US8343964B2, “Indolic derivatives, their preparation processes and their uses in particular as antibacterials” (Universite Joseph Fourier, priority 2007, dated 2013)
Values after ≈ are worked out from the molar mass of the structure shown. Like-named read-outs stand apart in the source and are kept apart here.

Key:
[1] = system: Staphylococcus aureus (ATCC 25923, sensitive Gram-positive strain); test: Determination of the antibacterial activity: MIC in liquid Mueller-Hinton medium (intrinsic antibacterial activity); format: cell-based
Experimental: (§1) The two strains used are Staphylococcus aureus (ATCC 25923, sensitive Gram-positive strain) denoted S, and S. aureus ITS-1199 (without efflux), as well as its derivative S. aureus ITS-1199B (Kaatz, G. W., Seo, S. M., Antimicrob. Agents Chemother., 1995, 39, 2650-2655) having a resistance to the fluoroquinolones due to the overexpression of the efflux pump NorA and denoted R NorA. The bacteria are cultured at 37° C. in Mueller-Hinton (MH, Bio Rad) or Luria-Bertani (LB, Difco) Medium.
The experiments described hereafter are carried out following the recommendations of the Comité de l'Antibiogramme de la Société Française de Microbiologic (http://www.sfm.asso.fr/nouv/general.php See also Courvalin, P., Goldstein, F., Philippon, A., Sirot J. L'antibiogramme, 1985, M.P.C.-Videom editor). The antibacterial activity of the molecules was determined in liquid medium using a Biomek 2000 robot (Beckman) and micro-titration plates. The final volume in each well is 200 μl. A maximum volume of 5 μl of a solution of the molecule in DMSO is added to each well containing 10^6 CFU/ml (Colony Forming Units) of bacteria in MH medium. The final concentration of the molecule to be tested must be 100 or 128 μg/ml. […] Ampicillin is used as a positive control and the same volume of DMSO as that used to introduce the molecule (generally 2 to 5 μl) as a negative control.
The experiments are repeated three times.

[2] = system: KB (human mouth carcinoma); test: In vitro cytotoxicity on KB cells; format: cell-based
Experimental: (§2) The in vitro cytotoxicity results, measured at a concentration of 10^−5 M, are described below. The cytotoxicity was measured on 5 cell lines—KB (human mouth carcinoma), MCF7 (breast carcinoma) and MCF7R (resistant strain), Vero (monkey kidney) and HCT116 (human colon tumour).

[3] = In vitro cytotoxicity on Vero cells; format: cell-based; details: monkey
Experimental: as §2

[4] = In vitro cytotoxicity on HCT116 cells; format: cell-based; details: human, concentration of 10^−5 M, read-out: Average cytotoxicity (% inhibition), HCT116 cells
Experimental: as §2

[5] = system: S. aureus ITS-1199B (overexpression of the efflux pump NorA); format: cell-based, Staphylococcus aureus; details: resistant strain R NorA; for MIC (μg/ml) of compound in the presence of ciprofloxacin at 8 μg/ml (c/2): ciprofloxacin 8 μg/ml (c/2); for MIC (μg/ml) of compound in the presence of ciprofloxacin at 4 μg/ml (c/4): ciprofloxacin 4 μg/ml (c/4)
Experimental: as §1
The experiences are carried out as above, but using the resistant strain, and looking at the effect of the mixture of the molecule to be tested and the antibiotic to which the bacterium is resistant. Thus, the method of a series of dilutions in Mueller-Hinton medium is used, also starting from a molecule concentration of 100 or 128 μg/ml.

[6] = In vitro cytotoxicity on MCF7 cells; format: cell-based; details: human, MCF7 cells (breast carcinoma); concentration of 10^−5 M; read-out: Average cytotoxicity (% inhibition), MCF7 cells
Experimental: as §2

in vitro = format: cell-based; details: human
Experimental: as §2

[7] = ATCC25923, compound alone, lowest concentration allowing no growth after 18 hours at 37° C., 10^6 CFU/ml, read-out: MIC / Antibacterial Activity (AA)
[8] = concentration of 10^−5 M, read-out: Average cytotoxicity (% inhibition), Vero cells
[9] = ATCC25923, 18 h, read-out: MIC / Antibacterial Activity (AA)
[10] = Vero cells (monkey kidney), concentration of 10^−5 M, read-out: Average cytotoxicity (% inhibition), Vero cells
[11] = HCT116 cells (human colon tumour)

For `Cl.Cl.NCC(N)c1c[nH]c2ccc(Br)cc12` (stereo not drawn) [(27), 1,2-diamino-1-(5′-bromo-3′-indolyl)ethane dihydrochloride], which MIC [1, 7] is on record?
Its MIC is 25 µg/mL.

And the “Average cytotoxicity (% inhibition), KB cells” value ([2]; concentration of 10^−5 M)?
The value was 0%.

What about the cytotoxicity [3, 8] of the same molecule?
Its cytotoxicity is 14%.

What about the cytotoxicity [4] of the same molecule?
Its cytotoxicity is 26%.

Which MIC [1, 9] does the source give for `O=[N+]([O-])c1ccc(C(c2c[nH]c3ccccc23)N(O)Cc2ccccc2)cc1` (stereo not drawn) [(42)] here?
The MIC was 50 µg/mL (≈ 134 µM).

What does the source list for `Cl.Cl.NCC(NO)c1c[nH]c2ccc(Br)cc12` (stereo not drawn) [(32), 1-(N-hydroxy)-1,2-diamino-1-(5′-bromo-3′-indolyl)ethane dihydrochloride]?
MIC [1, 7]: 3 µg/mL; Average cytotoxicity (% inhibition), KB cells ([2]; concentration of 10^−5 M): 23%; cytotoxicity [3, 8]: 20%

With `COc1ccc2[nH]cc(C(N)CNC(=O)OC(C)(C)C)c2c1` (stereo not drawn) [(24), 1-amino-[2-N′-(tert-butoxycarbonyl)amino]-1-(5′-methoxy-3′-indolyl) ethane] as the molecule, how does the MIC ([1]; ATCC25923) read?
The MIC was at most 10 µg/mL.

What about the “MIC (μg/ml) of compound in the presence of ciprofloxacin at 8 μg/ml (c/2)” value (shortened to “MIC (μg/ml) of compound in the presence … (c/2)”) [5] of the same molecule?
The value was 4 µg/mL.

And the “Average cytotoxicity (% inhibition), KB cells” value ([2]; concentration of 10^−5 M)?
The value was 2%.

And the cytotoxicity [3, 10]?
Its cytotoxicity is 12%.

And the cytotoxicity [4, 11]?
Its cytotoxicity is 13%.

For `CC(NCc1ccccc1)c1c[nH]c2ccc(Br)cc12` (stereo not drawn) [Compound (15)], which MIC [1, 9] is on record?
Its MIC is 25 µg/mL (≈ 75.9 µM).

For `COc1ccc2[nH]cc(C(CNC(=O)OC(C)(C)C)N(O)Cc3ccccc3)c2c1` (stereo not drawn) [Compound (7)], which “Average cytotoxicity (% inhibition), KB cells” value ([2]; concentration of 10^−5 M) is on record?
Its value is 15.6%.

And the cytotoxicity [6]?
The cytotoxicity was 9.7%.

And the cytotoxicity (in vitro)?
The cytotoxicity was 10.1%.

And the cytotoxicity [3, 10]?
The cytotoxicity was 8%.

And the cytotoxicity [4, 11]?
Its cytotoxicity is 10%.

For `COc1ccc(CN(O)C(CC(C)C)c2c[nH]c3ccccc23)c(OC)c1` (stereo not drawn) [(40)], which “MIC (μg/ml) of compound in the presence … (c/2)” value [5] is on record?
Its value is over 8 µg/mL.

What about the “Average cytotoxicity (% inhibition), KB cells” value ([2]; concentration of 10^−5 M) of the same molecule?
The value was 13%.

And the cytotoxicity [3, 10]?
The cytotoxicity was 32%.

And the cytotoxicity [4, 11]?
The cytotoxicity was 46%.

Which results are given for `CC(C)(C)OC(=O)NCC(c1c[nH]c2ccc(Cl)cc12)N(O)C(=O)OC(C)(C)C` (stereo not drawn) [Compound (12)]?
MIC [1, 7]: 12.5 µg/mL (≈ 29.3 µM); MIC (μg/ml) of compound in the presence of ciprofloxacin at 4 μg/ml (c/4) [5]: 4 µg/mL

With `COc1ccc2[nH]cc(C(C)N(O)Cc3ccccc3)c2c1` (stereo not drawn) [(38)] as the molecule, how does the “MIC (μg/ml) of compound in the presence … (c/2)” value [5] read?
Its value is over 8 µg/mL.

And the “Average cytotoxicity (% inhibition), KB cells” value ([2]; concentration of 10^−5 M)?
Its value is 0%.

What about the cytotoxicity [3, 10] of the same molecule?
The cytotoxicity was 5%.

And the cytotoxicity [4, 11]?
Its cytotoxicity is 15%.

For `CC(c1c[nH]c2ccc(Br)cc12)N(O)Cc1ccccc1` (stereo not drawn) [Compound (1)], which MIC [1, 7] is on record?
The MIC was 25 µg/mL (≈ 72.4 µM).

What about the “Average cytotoxicity (% inhibition), KB cells” value ([2]; concentration of 10^−5 M) of the same molecule?
The value was 50%.

And the cytotoxicity [3, 10]?
The cytotoxicity was 36%.

And the cytotoxicity [4, 11]?
Its cytotoxicity is 28%.

For `CC(c1c[nH]c2ccc(Br)cc12)/[N+]([O-])=C\c1ccccc1` (stereo not drawn) [(43)], which MIC [1, 9] is on record?
Its MIC is 100 µg/mL (≈ 291 µM).

Which MIC [1, 9] does the source give for `CC(C)(C)OC(=O)NCC(c1c[nH]c2ccc(Br)cc12)N(O)Cc1ccccc1` (stereo not drawn) [Compound (4)] here?
The MIC was 25 µg/mL (≈ 54.3 µM).

With `O=C(CONC(=O)OCC1c2ccccc2-c2ccccc21)NC(COCc1ccccc1)c1c[nH]c2ccccc12` (stereo not drawn) [Compound (48)] as the molecule, how does the “MIC (μg/ml) of compound in the presence of ciprofloxacin at 4 μg/ml (c/4)” value (shortened to “MIC (μg/ml) of compound in the presence … (c/4)”) [5] read?
The value was 2 µg/mL.

For `CC(C)(C)OC(=O)NCC(NC(=O)OC(C)(C)C)c1c[nH]c2cc(Br)ccc12` (stereo not drawn) [(36)], which “MIC (μg/ml) of compound in the presence … (c/4)” value [5] is on record?
Its value is 8 µg/mL.

For `CC(C)(C)OC(=O)NCC(N)c1c[nH]c2ccccc12` (stereo not drawn) [(23)], which “MIC (μg/ml) of compound in the presence … (c/2)” value [5] is on record?
Its value is 4 µg/mL.

And the “Average cytotoxicity (% inhibition), KB cells” value ([2]; concentration of 10^−5 M)?
Its value is 2%.

What about the cytotoxicity [3, 10] of the same molecule?
Its cytotoxicity is 11%.

And the cytotoxicity [4, 11]?
The cytotoxicity was 5%.

For `COc1ccc(/C=[N+](\[O-])C(CNC(=O)OC(C)(C)C)c2c[nH]c3ccc(Br)cc23)cc1` (stereo not drawn) [(20)], which “MIC (μg/ml) of compound in the presence … (c/4)” value [5] is on record?
Its value is 3 µg/mL.

What about the “MIC (μg/ml) of compound in the presence … (c/2)” value [5] of the same molecule?
The value was under 3 µg/mL.

With `CC(C)(C)OC(=O)NCC(c1c[nH]c2cc(Br)ccc12)N(O)Cc1ccccc1` (stereo not drawn) [Compound (5)] as the molecule, how does the MIC [1, 7] read?
Its MIC is 6 µg/mL (≈ 13 µM).

What about the “MIC (μg/ml) of compound in the presence … (c/4)” value [5] of the same molecule?
Its value is 2 µg/mL.

For `COc1ccc2c(C(N)CN)c[nH]c2c1` (stereo not drawn) [(31)], which MIC [1, 7] is on record?
Its MIC is 64 µg/mL (≈ 312 µM).

What about the “Average cytotoxicity (% inhibition), KB cells” value ([2]; human) of the same molecule?
The value was 41%.

And the cytotoxicity [3]?
The cytotoxicity was 27%.
